From patent publication US10231954B2, “Neurodegenerative therapies” (LYTIX BIOPHARMA AS, priority 2014, dated 2019)

Experiments:
Type in all cases: biochemical
Details in all cases: 100 micromolar inhibitor concentration, 100 is no change
TTBK2 = TTBK2 (Homo sapiens, UniProt Q6IQ55); experiment: Kinase profiling TTBK2
From the text: (§1) Any value less that 25 is considered to be highly significant inhibition.

MST4 = MST4 (Homo sapiens, UniProt Q9P289); experiment: Kinase profiling MST4
From the text: as §1

DDR2 = molecular target: T1, DDR2 (Homo sapiens, UniProt Q16832); experiment: Kinase profiling DDR2
T1 sequence (Q16832 22-855): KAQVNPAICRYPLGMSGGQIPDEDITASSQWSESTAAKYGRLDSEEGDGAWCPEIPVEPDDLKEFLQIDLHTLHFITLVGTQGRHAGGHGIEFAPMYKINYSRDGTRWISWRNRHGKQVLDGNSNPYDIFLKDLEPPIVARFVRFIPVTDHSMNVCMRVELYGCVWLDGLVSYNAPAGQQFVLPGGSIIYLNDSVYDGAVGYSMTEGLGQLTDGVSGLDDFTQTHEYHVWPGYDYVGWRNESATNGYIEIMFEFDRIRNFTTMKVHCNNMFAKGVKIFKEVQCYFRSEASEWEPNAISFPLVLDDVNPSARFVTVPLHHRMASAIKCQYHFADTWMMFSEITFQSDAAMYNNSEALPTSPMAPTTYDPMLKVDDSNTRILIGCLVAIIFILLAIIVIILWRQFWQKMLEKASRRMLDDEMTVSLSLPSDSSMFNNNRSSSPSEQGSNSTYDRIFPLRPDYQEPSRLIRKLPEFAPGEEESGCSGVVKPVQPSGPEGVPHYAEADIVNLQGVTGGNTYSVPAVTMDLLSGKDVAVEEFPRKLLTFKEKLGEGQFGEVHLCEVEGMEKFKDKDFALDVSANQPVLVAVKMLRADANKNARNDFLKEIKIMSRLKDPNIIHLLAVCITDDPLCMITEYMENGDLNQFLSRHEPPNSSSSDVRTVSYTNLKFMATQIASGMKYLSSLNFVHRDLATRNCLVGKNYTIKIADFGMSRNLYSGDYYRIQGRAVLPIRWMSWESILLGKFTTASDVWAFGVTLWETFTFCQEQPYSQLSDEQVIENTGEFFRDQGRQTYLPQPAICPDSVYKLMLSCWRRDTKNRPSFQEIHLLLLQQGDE
From the text: as §1

BRSK1 = molecular target: T2, BRSK1 (Homo sapiens, UniProt Q8TDC3); experiment: Kinase profiling BRSK1
T2 sequence (Q8TDC3 1-778): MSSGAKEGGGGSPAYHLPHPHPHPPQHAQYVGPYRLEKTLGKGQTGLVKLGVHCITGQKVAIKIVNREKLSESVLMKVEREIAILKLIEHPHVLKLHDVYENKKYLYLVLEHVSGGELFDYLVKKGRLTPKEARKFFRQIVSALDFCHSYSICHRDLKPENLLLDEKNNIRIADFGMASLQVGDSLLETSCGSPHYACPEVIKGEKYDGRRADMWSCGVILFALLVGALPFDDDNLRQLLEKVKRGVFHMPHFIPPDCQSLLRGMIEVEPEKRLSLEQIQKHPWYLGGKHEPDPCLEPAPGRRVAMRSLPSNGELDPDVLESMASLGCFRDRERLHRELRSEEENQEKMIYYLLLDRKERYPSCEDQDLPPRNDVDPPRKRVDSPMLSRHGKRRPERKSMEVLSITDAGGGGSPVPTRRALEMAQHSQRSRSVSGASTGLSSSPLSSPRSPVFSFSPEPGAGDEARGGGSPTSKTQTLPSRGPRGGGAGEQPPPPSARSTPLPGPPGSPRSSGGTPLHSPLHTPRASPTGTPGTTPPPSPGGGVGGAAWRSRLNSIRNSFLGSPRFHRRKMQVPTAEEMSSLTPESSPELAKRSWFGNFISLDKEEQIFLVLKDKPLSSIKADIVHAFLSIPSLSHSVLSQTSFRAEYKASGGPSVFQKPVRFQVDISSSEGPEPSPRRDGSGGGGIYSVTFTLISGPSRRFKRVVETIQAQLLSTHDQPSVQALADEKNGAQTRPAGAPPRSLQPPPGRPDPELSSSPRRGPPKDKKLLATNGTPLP
From the text: as §1

MARK2 = MARK2 (Homo sapiens, UniProt Q7KZI7); experiment: Kinase profiling MARK2
MARK2, sequence (Q7KZI7 whole entry, species assumed): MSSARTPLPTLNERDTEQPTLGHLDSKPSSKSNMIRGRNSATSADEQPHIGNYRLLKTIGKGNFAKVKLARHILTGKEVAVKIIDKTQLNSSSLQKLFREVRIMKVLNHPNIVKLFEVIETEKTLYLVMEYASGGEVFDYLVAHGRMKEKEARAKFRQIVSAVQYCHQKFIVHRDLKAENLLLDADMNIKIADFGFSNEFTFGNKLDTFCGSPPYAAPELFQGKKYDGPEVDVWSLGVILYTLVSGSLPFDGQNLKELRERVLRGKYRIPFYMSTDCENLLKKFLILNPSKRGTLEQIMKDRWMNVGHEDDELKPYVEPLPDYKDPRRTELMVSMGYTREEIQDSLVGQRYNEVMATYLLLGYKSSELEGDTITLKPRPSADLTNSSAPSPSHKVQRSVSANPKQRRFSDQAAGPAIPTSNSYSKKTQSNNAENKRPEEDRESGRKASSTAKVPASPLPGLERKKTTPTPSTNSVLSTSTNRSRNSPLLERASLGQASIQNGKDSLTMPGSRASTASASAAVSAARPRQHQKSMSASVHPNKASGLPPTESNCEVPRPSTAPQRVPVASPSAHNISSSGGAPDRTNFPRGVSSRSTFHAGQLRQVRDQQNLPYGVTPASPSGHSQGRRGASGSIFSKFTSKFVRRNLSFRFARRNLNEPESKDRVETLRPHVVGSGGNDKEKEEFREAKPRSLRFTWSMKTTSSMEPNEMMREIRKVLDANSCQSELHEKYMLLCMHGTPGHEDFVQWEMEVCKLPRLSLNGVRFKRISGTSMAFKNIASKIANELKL
From the text: as §1

EPH-B4 = molecular target: T3, EPH-B4 (Homo sapiens, UniProt P54760); experiment: Kinase profiling EPH-B4
T3 sequence (P54760 16-987): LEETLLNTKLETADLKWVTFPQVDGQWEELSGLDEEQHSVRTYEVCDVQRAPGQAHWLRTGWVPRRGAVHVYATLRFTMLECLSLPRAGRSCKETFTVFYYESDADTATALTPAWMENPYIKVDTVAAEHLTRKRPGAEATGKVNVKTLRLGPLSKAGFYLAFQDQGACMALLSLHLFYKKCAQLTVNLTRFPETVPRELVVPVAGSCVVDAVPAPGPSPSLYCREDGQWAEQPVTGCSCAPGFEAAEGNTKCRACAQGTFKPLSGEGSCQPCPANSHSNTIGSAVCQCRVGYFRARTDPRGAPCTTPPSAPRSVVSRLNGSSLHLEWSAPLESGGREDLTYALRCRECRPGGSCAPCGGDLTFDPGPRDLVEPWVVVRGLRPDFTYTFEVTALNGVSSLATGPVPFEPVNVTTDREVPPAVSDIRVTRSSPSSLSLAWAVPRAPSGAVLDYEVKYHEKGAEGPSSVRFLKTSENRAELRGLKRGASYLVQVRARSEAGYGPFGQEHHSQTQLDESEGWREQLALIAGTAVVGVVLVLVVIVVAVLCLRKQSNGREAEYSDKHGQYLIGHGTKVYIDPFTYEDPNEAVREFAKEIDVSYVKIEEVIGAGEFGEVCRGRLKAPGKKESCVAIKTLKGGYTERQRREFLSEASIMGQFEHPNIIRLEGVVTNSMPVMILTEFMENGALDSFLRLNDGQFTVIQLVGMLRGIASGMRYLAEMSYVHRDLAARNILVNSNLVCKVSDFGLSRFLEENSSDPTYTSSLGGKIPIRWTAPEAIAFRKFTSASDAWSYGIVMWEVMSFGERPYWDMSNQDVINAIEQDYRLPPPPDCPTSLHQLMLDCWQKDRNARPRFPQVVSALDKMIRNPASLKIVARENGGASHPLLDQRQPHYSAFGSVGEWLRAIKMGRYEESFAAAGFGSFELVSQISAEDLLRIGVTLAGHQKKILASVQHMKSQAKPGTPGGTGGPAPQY
From the text: as §1

MST3 = MST3 (Homo sapiens, UniProt Q9Y6E0); experiment: Kinase profiling MST3
MST3, sequence (Q9Y6E0 whole entry, species assumed): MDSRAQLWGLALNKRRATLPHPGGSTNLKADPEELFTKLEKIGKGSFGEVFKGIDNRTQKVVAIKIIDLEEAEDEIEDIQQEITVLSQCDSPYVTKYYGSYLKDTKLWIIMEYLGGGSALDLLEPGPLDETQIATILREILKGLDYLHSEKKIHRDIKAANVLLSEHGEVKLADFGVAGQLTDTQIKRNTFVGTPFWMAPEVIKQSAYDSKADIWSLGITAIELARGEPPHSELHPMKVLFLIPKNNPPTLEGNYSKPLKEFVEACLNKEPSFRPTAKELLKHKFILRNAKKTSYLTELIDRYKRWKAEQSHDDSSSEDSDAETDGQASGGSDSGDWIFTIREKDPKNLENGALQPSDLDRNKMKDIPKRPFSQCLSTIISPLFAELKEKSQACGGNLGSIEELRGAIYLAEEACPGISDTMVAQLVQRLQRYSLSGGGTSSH
From the text: as §1

TTBK2, sequence (Q6IQ55 whole entry, species assumed): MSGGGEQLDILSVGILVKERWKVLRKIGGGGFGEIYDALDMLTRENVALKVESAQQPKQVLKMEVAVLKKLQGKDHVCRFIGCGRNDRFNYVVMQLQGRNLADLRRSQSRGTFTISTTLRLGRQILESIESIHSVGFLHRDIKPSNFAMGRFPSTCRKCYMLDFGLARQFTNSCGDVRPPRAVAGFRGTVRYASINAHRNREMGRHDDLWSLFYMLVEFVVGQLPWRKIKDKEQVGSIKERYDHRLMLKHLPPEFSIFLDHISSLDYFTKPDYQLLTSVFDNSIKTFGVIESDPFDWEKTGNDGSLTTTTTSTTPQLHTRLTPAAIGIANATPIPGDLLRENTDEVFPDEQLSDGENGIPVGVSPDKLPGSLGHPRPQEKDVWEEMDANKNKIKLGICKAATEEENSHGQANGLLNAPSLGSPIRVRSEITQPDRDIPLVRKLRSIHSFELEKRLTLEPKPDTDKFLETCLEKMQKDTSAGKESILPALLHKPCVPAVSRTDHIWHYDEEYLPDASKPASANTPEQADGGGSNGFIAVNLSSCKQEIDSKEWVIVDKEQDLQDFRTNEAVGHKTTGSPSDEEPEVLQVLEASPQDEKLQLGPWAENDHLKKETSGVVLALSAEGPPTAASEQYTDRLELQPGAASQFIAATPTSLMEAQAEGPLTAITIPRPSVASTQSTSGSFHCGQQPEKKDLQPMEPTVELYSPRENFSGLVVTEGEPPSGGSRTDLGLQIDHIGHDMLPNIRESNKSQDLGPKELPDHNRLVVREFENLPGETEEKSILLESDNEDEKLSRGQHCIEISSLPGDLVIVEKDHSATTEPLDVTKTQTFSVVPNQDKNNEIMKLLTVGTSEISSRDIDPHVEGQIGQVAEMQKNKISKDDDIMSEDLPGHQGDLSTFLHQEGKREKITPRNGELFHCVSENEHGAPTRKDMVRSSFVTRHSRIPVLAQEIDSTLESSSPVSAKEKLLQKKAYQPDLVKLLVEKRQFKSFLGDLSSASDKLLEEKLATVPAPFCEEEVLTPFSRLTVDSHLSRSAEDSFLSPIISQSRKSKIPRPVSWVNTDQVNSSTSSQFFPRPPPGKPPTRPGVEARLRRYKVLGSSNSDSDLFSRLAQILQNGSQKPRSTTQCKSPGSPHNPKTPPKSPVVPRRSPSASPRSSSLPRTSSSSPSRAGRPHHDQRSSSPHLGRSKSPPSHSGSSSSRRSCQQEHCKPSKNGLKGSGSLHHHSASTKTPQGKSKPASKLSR
MST4, sequence (Q9P289 whole entry, species assumed): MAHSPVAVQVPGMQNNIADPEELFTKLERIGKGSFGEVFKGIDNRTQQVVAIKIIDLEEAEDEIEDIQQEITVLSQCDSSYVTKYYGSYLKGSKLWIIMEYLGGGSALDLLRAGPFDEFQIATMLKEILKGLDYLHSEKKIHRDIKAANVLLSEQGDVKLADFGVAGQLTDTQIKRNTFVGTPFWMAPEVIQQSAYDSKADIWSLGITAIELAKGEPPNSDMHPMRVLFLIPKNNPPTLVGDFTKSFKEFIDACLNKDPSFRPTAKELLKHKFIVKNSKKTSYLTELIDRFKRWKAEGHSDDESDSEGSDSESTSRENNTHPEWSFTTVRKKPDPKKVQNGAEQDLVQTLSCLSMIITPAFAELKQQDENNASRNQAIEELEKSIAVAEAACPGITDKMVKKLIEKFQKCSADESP

## CC(=O)Nc1nc2ccccc2s1 [Compound 03-32]
TTBK2
  residual kinase activity, TTBK2: 85
MST4
  residual kinase activity, MST4: 110
DDR2
  residual kinase activity, DDR2: 97
BRSK1
  residual kinase activity, BRSK1: 95
MARK2
  residual kinase activity, MARK2: 88
EPH-B4
  residual kinase activity, EPH-B4: 99
MST3
  residual kinase activity, MST3: 87

## CC(=O)Nc1nc2cc(F)ccc2s1 [Compound 03-77]
TTBK2; read-out: residual kinase activity, TTBK2
  remaining activity at 100 µM: 93%
MST4; read-out: residual kinase activity, MST4
  remaining activity at 100 µM: 88%
DDR2; read-out: residual kinase activity, DDR2
  remaining activity at 100 µM: 101%
BRSK1; read-out: residual kinase activity, BRSK1
  remaining activity at 100 µM: 78%
MARK2; read-out: residual kinase activity, MARK2
  remaining activity at 100 µM: 79%
EPH-B4; read-out: residual kinase activity, EPH-B4
  remaining activity at 100 µM: 112%
MST3; read-out: residual kinase activity, MST3
  remaining activity at 100 µM: 87%

## O=C(Nc1nc2cc(O)ccc2s1)c1cccnc1 [Compound 03-33]
TTBK2
  residual kinase activity, TTBK2: 102
MST4
  residual kinase activity, MST4: 103
DDR2
  residual kinase activity, DDR2: 109
BRSK1
  residual kinase activity, BRSK1: 83
MARK2
  residual kinase activity, MARK2: 102
EPH-B4
  residual kinase activity, EPH-B4: 106
MST3
  residual kinase activity, MST3: 90
